# Experimental data: patent publication US20250170248A1, “SMARCA DEGRADERS AND USES THEREOF” (Kymera Therapeutics, Inc., priority 2021, published 2025)
# Columns and labels:
# Format in all cases: cell-based
# SMARCA2 [1] = target: T1, SMARCA2 (Homo sapiens, UniProt P51531); test: MSD SMARCA2 degradation in A549 cell line; conditions: for Dmax: A549, A549 cells; for Dmax / DC50: 24 h; for DC50: read-out: SMARCA2 MSD A549 degradation 24 h: Average external-Abs DC50
# Procedure, shortened: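 SMARCA2 protein remaining after 24 h exposure of A549 cells (top concentration 1000 nM, 3-fold dilutions) was measured by MSD electrochemiluminescence immunoassay of cell lysates. Results are given as binned DC50 and maximal degradation (Dmax) codes.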
# SMARCA4 = target: T2, SMARCA4 (Homo sapiens, UniProt P51532); test: SMARCA4 Western blot degradation in MV4-11 cells; conditions: for Dmax: MV4-11, MV4-11 cells, read-out: SMARCA4 MSD MV411 degradation 24 h: average Dmax %; for Dmax / DC50: 24 h; for DC50: read-out: SMARCA4 MSD MV411 degradation 24 h: Mean external-Abs DC50
# T2 construct: SMARCA2/SMARCA4 protein degradation selectivity in MV4-11 cells; endogenous in cells; host or cells: MV4-11
# Procedure, shortened: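 Fluorescent LI-COR imaging of Western blots quantified SMARCA2 and SMARCA4 protein remaining in MV4-11 cells after 24 h of compound treatment. β-actin was the loading control, and DC50, Dmax and SMARCA2/4 selectivity are given as letter-coded ranges.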
# SMARCA2 [2] = target: T1, SMARCA2; test: SMARCA2 Western blot degradation in MV4-11 cells; design: SMARCA2/SMARCA4 protein degradation selectivity in MV4-11 cells; endogenous in cells; host or cells: MV4-11; conditions: for Dmax: MV4-11, MV4-11 cells, read-out: SMARCA2 MSD MV411 degradation 24 h: average Dmax %; for DC50: read-out: SMARCA2 MSD MV411 degradation 24 h: Mean external-Abs DC50; for Selectivity in MV411: SMARCA2/4 selectivity
# T1 sequence (P51531 whole entry): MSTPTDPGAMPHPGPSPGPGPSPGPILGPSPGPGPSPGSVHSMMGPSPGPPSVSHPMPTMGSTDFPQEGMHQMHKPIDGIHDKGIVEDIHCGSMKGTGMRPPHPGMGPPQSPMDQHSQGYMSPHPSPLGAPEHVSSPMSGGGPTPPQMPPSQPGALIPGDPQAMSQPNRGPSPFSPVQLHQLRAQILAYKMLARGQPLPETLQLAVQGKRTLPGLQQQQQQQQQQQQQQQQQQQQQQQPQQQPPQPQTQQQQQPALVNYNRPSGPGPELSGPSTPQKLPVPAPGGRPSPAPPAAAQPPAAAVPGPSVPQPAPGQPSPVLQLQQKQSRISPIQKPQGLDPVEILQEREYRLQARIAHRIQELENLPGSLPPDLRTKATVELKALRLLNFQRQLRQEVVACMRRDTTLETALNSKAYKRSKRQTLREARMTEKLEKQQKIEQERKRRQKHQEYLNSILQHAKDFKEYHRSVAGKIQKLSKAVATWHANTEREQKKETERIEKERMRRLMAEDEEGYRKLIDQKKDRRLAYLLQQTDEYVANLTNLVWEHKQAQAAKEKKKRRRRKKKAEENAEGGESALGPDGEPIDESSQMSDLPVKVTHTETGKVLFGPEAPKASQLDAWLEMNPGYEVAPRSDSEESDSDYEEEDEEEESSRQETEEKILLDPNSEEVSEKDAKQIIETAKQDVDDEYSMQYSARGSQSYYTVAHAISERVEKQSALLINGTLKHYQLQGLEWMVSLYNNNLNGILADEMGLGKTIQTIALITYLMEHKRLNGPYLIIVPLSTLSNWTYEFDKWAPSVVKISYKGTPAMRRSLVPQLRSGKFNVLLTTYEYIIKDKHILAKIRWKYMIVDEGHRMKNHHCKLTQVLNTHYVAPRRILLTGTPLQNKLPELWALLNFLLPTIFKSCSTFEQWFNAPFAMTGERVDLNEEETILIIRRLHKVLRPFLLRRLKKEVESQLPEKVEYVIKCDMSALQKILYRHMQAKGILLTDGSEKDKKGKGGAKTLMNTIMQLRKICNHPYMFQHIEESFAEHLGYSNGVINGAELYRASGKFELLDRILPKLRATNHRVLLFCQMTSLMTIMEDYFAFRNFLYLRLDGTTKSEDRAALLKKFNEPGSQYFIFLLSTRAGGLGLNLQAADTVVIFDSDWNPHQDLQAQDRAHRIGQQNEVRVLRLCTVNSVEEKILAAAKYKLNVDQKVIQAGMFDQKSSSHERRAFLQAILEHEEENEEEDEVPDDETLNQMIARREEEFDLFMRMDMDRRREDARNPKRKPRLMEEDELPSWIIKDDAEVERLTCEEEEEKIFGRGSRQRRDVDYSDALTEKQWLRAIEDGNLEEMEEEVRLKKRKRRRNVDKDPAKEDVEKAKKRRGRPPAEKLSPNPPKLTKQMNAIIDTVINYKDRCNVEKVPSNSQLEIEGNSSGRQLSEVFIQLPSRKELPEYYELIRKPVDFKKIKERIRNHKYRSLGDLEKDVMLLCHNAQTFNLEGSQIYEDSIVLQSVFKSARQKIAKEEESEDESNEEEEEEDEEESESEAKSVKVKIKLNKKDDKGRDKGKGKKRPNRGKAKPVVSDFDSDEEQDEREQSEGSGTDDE
# T2 sequence (P51532 whole entry): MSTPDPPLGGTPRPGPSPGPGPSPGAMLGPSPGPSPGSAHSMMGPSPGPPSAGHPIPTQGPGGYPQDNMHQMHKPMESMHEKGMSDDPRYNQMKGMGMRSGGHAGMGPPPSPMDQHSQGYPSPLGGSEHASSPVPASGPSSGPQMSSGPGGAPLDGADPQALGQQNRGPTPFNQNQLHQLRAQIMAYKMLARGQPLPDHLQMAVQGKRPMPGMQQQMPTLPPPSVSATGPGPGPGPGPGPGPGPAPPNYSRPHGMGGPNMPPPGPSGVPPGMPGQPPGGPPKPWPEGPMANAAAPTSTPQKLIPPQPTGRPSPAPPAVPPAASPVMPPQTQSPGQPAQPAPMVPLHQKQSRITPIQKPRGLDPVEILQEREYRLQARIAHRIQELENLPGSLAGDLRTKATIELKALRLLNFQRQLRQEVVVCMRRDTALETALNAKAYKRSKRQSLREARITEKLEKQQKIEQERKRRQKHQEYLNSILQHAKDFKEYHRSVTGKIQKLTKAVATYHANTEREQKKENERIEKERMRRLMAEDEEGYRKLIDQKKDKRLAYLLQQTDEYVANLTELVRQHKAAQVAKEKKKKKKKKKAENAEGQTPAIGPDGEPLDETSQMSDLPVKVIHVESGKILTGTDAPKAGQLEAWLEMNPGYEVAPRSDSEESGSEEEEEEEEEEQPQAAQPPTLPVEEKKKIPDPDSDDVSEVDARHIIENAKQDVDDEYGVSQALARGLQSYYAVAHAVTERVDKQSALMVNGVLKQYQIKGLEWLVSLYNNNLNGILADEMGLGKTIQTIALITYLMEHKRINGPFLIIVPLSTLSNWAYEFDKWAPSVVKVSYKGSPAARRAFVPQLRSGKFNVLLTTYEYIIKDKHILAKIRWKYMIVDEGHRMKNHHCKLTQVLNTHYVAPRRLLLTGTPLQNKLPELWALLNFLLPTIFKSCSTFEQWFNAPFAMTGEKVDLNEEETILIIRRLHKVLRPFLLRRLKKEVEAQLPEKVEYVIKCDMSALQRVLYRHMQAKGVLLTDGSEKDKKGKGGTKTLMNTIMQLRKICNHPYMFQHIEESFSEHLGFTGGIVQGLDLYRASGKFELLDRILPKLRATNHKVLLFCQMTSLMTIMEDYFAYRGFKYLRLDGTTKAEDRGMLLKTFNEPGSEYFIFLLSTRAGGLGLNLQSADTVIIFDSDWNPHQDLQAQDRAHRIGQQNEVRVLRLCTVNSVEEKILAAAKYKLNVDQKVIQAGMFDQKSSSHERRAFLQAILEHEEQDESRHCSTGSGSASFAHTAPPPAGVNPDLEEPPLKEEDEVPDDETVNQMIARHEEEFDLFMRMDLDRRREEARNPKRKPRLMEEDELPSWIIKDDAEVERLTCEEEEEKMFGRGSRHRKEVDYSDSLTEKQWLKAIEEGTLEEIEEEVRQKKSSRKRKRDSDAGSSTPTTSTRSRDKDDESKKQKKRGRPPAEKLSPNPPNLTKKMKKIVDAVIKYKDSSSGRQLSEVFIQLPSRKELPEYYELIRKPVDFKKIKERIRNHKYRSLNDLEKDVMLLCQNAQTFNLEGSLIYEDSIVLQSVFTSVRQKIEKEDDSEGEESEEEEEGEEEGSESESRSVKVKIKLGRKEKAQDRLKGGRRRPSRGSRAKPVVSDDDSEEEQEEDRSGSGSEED
Compound,Dmax (SMARCA2 [1]) [%],DC50 (SMARCA2 [1]; A549 cells) [µM],Dmax (SMARCA4) [%],DC50 (SMARCA4; MV4-11 cells) [µM],Dmax (SMARCA2 [2]; 24 h) [%],"DC50 (SMARCA2 [2]; MV4-11 cells, 24 h) [µM]",Selectivity in MV411 (SMARCA2 [2]; MV4-11 cells),SMARCA2 MSD A549 degradation 24 h: Average Dmax % (SMARCA2 [1]; A549 cells),SMARCA4 MSD MV411 degradation 24 h: average Dmax % (SMARCA4; MV4-11 cells),"SMARCA2 MSD MV411 degradation 24 h: average Dmax % (SMARCA2 [2]; MV4-11 cells, 24 h)"
Cc1ncsc1-c1ccc(CNC(=O)[C@@H]2C[C@@H](O)CN2C(=O)[C@@H](NC(=O)[C@H]2CC3(CC[C@H](N4CCN(c5ccnc(N6CCc7[nH]c8nnc(-c9ccccc9O)cc8c7[C@H]6C)n5)CC4)CC3)C2)C(C)(C)C)cc1 (some centres unmarked) [I-80],> 90,< 0.01,> 90,0.001 to 0.01,> 90,< 0.001,C (C (10-100 fold)),–,–,–
Cc1ncsc1-c1ccc(CNC(=O)[C@@H]2C[C@@H](O)CN2C(=O)[C@@H](NC(=O)N2CC3(CC(N4CCN(c5cnc(N6CCc7[nH]c8nnc(-c9ccccc9O)cc8c7[C@H]6C)nc5)CC4)C3)C2)C(C)(C)C)cc1 [I-82],> 90,< 0.01,70 to 90,0.01 to 0.1,> 90,0.001 to 0.01,C (C (10-100 fold)),–,–,–
Cc1ncsc1-c1ccc(CNC(=O)[C@@H]2C[C@@H](O)CN2C(=O)[C@@H](NC(=O)[C@H]2CC[C@H](c3ccc(-c4cnc(N5CCN6c7cc(-c8ccccc8O)nnc7NC[C@H]6C5)nc4)cc3)CC2)C(C)(C)C)cc1 [I-85],> 90,0.05 to 0.1,< 50,> 0.1,70 to 90,0.01 to 0.1,C (C (10-100 fold)),–,–,–
Cc1ncsc1-c1ccc(CNC(=O)[C@@H]2C[C@@H](O)CN2C(=O)[C@@H](NC(=O)[C@H]2CC[C@@H](c3ccc(-c4cnc(N5CCN6c7cc(-c8ccccc8O)nnc7NC[C@H]6C5)nc4)cc3)CC2)C(C)(C)C)cc1 [I-86],> 90,< 0.01,> 90,0.001 to 0.01,> 90,< 0.001,C (C (10-100 fold)),–,–,–
C#Cc1ccc(CNC(=O)[C@@H]2C[C@@H](O)CN2C(=O)[C@@H](NC(=O)C2CCC3(CC2)CC(N2CCC(N4CCC(C(=O)N5CCN6c7cc(-c8ccccc8O)nnc7NC[C@H]6C5)CC4)CC2)C3)C(C)(C)C)cc1 (some centres unmarked) [I-89],> 90,> 0.1,< 50,> 0.1,70 to 90,0.001 to 0.01,A (A (>500 fold)),–,–,–
C#Cc1ccc(CNC(=O)[C@@H]2C[C@@H](O)CN2C(=O)[C@@H](NC(=O)C2CCC3(CC2)CC(N2CCC(N4CC(C(=O)N5CCN6c7cc(-c8ccccc8O)nnc7NC[C@H]6C5)C4)CC2)C3)C(C)(C)C)cc1 (some centres unmarked) [I-92],> 90,> 0.1,50 to 70,> 0.1,70 to 90,0.001 to 0.01,C (C (10-100 fold)),–,–,–
Cc1ncsc1-c1ccc(CNC(=O)[C@@H]2C[C@@H](O)CN2C(=O)[C@@H](NC(=O)[C@H]2CCC3(CC2)C[C@H](N2CCC(c4ccc(N5CCN6c7cc(-c8ccccc8O)nnc7NC[C@H]6C5)nc4)CC2)C3)C(C)(C)C)cc1 (some centres unmarked) [I-94],–,0.01 to 0.05,–,0.01 to 0.1,–,0.001 to 0.01,C (C (10-100 fold)),A (A (>90% degradation)),C (C (50-70% degradation)),B (B (>70-90% degradation))
C#Cc1ccc(CNC(=O)[C@@H]2C[C@@H](O)CN2C(=O)[C@@H](NC(=O)C2CCC3(CC2)CC(N2CCC(c4ccc(N5CCN6c7cc(-c8ccccc8O)nnc7NC[C@H]6C5)cc4)CC2)C3)C(C)(C)C)cc1 (some centres unmarked) [I-95],< 50,> 0.1,< 50,> 0.1,< 50,> 0.1,C (C (10-100 fold)),–,–,–
Cc1ncsc1-c1ccc(CNC(=O)[C@@H]2C[C@@H](O)CN2C(=O)[C@@H](OC(=O)N2CC3(CC(N4CCN(c5cnc(N6CCN7c8cc(-c9ccccc9O)nnc8NC[C@H]7C6)nc5)CC4)C3)C2)C(C)(C)C)cc1 [I-96],> 90,< 0.01,> 90,0.001 to 0.01,> 90,< 0.001,C (C (10-100 fold)),–,–,–
C#Cc1ccc(CNC(=O)[C@@H]2C[C@@H](O)CN2C(=O)[C@@H](NC(=O)N2CC3(CC(N4CCC(c5cnc(N6CCN7c8cc(-c9ccccc9O)nnc8NC[C@H]7C6)nc5)CC4)C3)C2)C(C)(C)C)cc1 [I-111],> 90,< 0.01,> 90,0.01 to 0.1,> 90,< 0.001,C (C (10-100 fold)),–,–,–
C#Cc1ccc(CNC(=O)[C@@H]2C[C@@H](O)CN2C(=O)[C@@H](NC(=O)N2CC3(CC(N4CCC(c5cnc(N6CCc7[nH]c8nnc(-c9ccccc9O)cc8c7[C@H]6C)nc5)CC4)C3)C2)C(C)(C)C)c(OC)c1 [I-119],> 90,< 0.01,> 90,0.01 to 0.1,> 90,0.001 to 0.01,C (C (10-100 fold)),–,–,–
C#Cc1ccc(CNC(=O)[C@@H]2C[C@@H](O)CN2C(=O)[C@@H](NC(=O)N2CC3(CC(N4CCC(c5cnc(N6CCc7[nH]c8nnc(-c9ccccc9O)cc8c7[C@H]6C)nc5)CC4)C3)C2)C(C)(C)C)c(F)c1 [I-120],> 90,0.01 to 0.05,50 to 70,> 0.1,70 to 90,0.01 to 0.1,B (B (>100-500 fold)),–,–,–

# Now from value to compound:
Dmax (SMARCA2 [1]) [%],DC50 (SMARCA2 [1]; A549 cells) [µM],Dmax (SMARCA4) [%],DC50 (SMARCA4; MV4-11 cells) [µM],Dmax (SMARCA2 [2]; 24 h) [%],"DC50 (SMARCA2 [2]; MV4-11 cells, 24 h) [µM]",Selectivity in MV411 (SMARCA2 [2]; MV4-11 cells),SMARCA2 MSD A549 degradation 24 h: Average Dmax % (SMARCA2 [1]; A549 cells),SMARCA4 MSD MV411 degradation 24 h: average Dmax % (SMARCA4; MV4-11 cells),"SMARCA2 MSD MV411 degradation 24 h: average Dmax % (SMARCA2 [2]; MV4-11 cells, 24 h)",Compound
> 90,0.05 to 0.1,< 50,> 0.1,50 to 70,0.01 to 0.1,B (B (>100-500 fold)),–,–,–,CC#Cc1ccc(CNC(=O)[C@@H]2C[C@@H](O)CN2C(=O)[C@@H](NC(=O)N2CC3(CC(N4CCC(c5cnc(N6CCc7[nH]c8nnc(-c9ccccc9O)cc8c7[C@H]6C)nc5)CC4)C3)C2)C(C)(C)C)cc1 [I-121]
> 90,> 0.1,70 to 90,> 0.1,70 to 90,0.01 to 0.1,D (D (<10 fold)),–,–,–,C#Cc1ccc(CNC(=O)[C@@H]2C[C@@H](O)CN2C(=O)[C@@H](NC(=O)N2CC3(CC(N4CCC(c5cnc(N6CCc7[nH]c8nnc(-c9ccccc9O)cc8c7[C@H]6C)nc5)CC4)C3)C2)C(C)(C)C)c(OCCCN(C)C)c1 [I-127]
> 90,< 0.01,> 90,0.01 to 0.1,> 90,0.001 to 0.01,D (D (<10 fold)),–,–,–,C#Cc1ccc(CNC(=O)[C@@H]2C[C@@H](O)CN2C(=O)[C@@H](NC(=O)N2CC3(CC(N4CCC(c5cnc(N6CCc7[nH]c8nnc(-c9ccccc9O)cc8c7[C@H]6C)nc5)CC4)C3)C2)C(C)(C)C)c(OCCCOC)c1 [I-128]
> 90,0.01 to 0.05,70 to 90,> 0.1,70 to 90,0.001 to 0.01,C (C (10-100 fold)),–,–,–,C#Cc1ccc(CNC(=O)[C@@H]2C[C@@H](O)CN2C(=O)[C@@H](NC(=O)N2CC3(CC(N4CCC(c5cnc(N6CCc7[nH]c8nnc(-c9ccccc9O)cc8c7[C@H]6CC)nc5)CC4)C3)C2)C(C)(C)C)cc1 [I-136]
> 90,0.05 to 0.1,< 50,> 0.1,70 to 90,0.001 to 0.01,A (A (>500 fold)),–,–,–,C#Cc1ccc(CNC(=O)[C@@H]2C[C@@H](O)CN2C(=O)[C@@H](NC(=O)C2CC3(C2)CC(N2CCC(N4CCC(N5CCN6c7cc(-c8ccccc8O)nnc7NC[C@H]6C5)CC4)CC2)C3)C(C)(C)C)cc1 (some centres unmarked) [I-137]
> 90,< 0.01,> 90,0.01 to 0.1,> 90,0.001 to 0.01,C (C (10-100 fold)),–,–,–,C#Cc1ccc(CNC(=O)[C@@H]2C[C@@H](O)CN2C(=O)[C@@H](OC(=O)N2CC3(CC(N4CCC(c5cnc(N6CCc7[nH]c8nnc(-c9ccccc9O)cc8c7[C@H]6C)nc5)CC4)C3)C2)C(C)(C)C)cc1 [I-138]
< 50,> 0.1,50 to 70,> 0.1,< 50,> 0.1,C (C (10-100 fold)),–,–,–,C#Cc1ccc(CNC(=O)[C@@H]2C[C@@H](O)CN2C(=O)[C@@H](N(C)C(=O)N2CC3(CC(N4CCC(c5cnc(N6CCc7[nH]c8nnc(-c9ccccc9O)cc8c7[C@H]6C)nc5)CC4)C3)C2)C(C)(C)C)cc1 [I-139]
< 50,> 0.1,< 50,> 0.1,< 50,> 0.1,C (C (10-100 fold)),–,–,–,C#Cc1ccc(CNC(=O)[C@@H]2C[C@@H](O)CN2C(=O)[C@@H](N(CCOC)C(=O)N2CC3(CC(N4CCC(c5cnc(N6CCc7[nH]c8nnc(-c9ccccc9O)cc8c7[C@H]6C)nc5)CC4)C3)C2)C(C)(C)C)cc1 [I-140]
